In publication PMC10488051, “Screening, Synthesis and Biochemical Characterization of SARS-CoV-2 Protease Inhibitors” (International Journal of Molecular Sciences, 2023):

Target: mutant PL^proC111S (Severe acute respiratory syndrome coronavirus 2, UniProt P0DTD1, C1674S)
Format: binding, SARS-CoV-2

In the case of `Nc1ccccc1SSc1ccccc1N` [Compound 32], the “Thermal effect (Tm) on mutant PL^proC111S” value is reported as “but not the mutant PL^proC111S”.
